Literature values in patent publication US20080200510A1, “Combination of Organic Compounds” (priority 2005, published 2008).

What was measured:
[1] = not given; remark: listed apart in the source
diet-induced obesity = settings: preclinical studies; by decreasing body weight, food intake, regulating circulating lipids and energy balance

| SMILES | body weight (agent by itself) | food intake (agent by itself) | body weight reduction in clinic [1] | reversal of diet-induced obesity (diet-induced obesity) | glycemia (agent alone, by preserving the incretin effects) |
| --- | --- | --- | --- | --- | --- |
| Cc1c(C(=O)NN2CCCCC2)nn(-c2ccc(Cl)cc2Cl)c1-c1ccc(Cl)cc1 [rimonabant, N-piperidino-5-(4-chlorophenyl)-1-(2,4-dichlorophenyl)-4-methylpyrazole-3-carboxamide] | reduction in body weight | decrease in food intake | highly effective to produce body weight reduction | effective in reversing diet-induced obesity | – |
| N#C[C@@H]1CCCN1C(=O)CNC12CC3CC(CC(O)(C3)C1)C2 [Vildagliptin, (S)-1-[(3-hydroxy-1-adamantyl)amino]acetyl-2-cyano-pyrrolidine] | – | – | – | – | improves glycemia |
